Measurements taken from patent publication US20210024482A1, “Novel Group of STAT3 Pathway Inhibitors and Cancer Stem Cell Pathway Inhibitors” (Sumitomo Dainippon Pharma Oncology, Inc., priority 2007, published 2021).

Experiments:
Type in all cases: cell-based
[1] = system: CD133^+ cells; experiment: Cleaved-Caspase 3 staining of CD133+ cells; conditions: FIG. 9B
Excerpt: Sorting tumor cells based primarily upon the differential expression of the surface marker(s), such as CD44 or CD133, have accounted for the majority of the highly tumorigenic CSCs described to date. CD133 isolation is based upon the method of Ricci-Vitiani et al., with slight modification. CD133^+ cells were isolated by either fluorescence activated cell sorting (FACS) or magnetic nanoparticle-based separation. Briefly, […] were labeled with CD133/1 (AC133)-PE for FACS-based cell sorting; or with CD133/1 (AC133)-biotin (Miltenyi Biotec, Auburn, Calif.) for magnetic field-based separation using the EasySep® biotin selection kit (Miltenyi Biotec) according to the manufacturer's recommendations. Non-specific labeling was blocked with the supplied FcR blocking reagent and antibody incubations (1:11) were carried out on ice for 15 minutes in PBS with 2% FBS and 1 mM EDTA. Five washes were done for EasySep® isolation, whereas cells were pelleted at 400×g for 5 minutes and resuspended at 2×10^7/mL, before sorting by FACS.
Cells treated with indicated compound for an indicated time were either fixed in 4% formaldehyde or cold methanol for the detection of Annexin V, cleaved caspase 3, or stat3, respectively. Coverslips were air dried and rehydrated in PBS at room temperature for 10 min. […]

[2] = system: Peripheral blood mononuclear cells (PBMCs); experiment: MTT cell viability of normal PBMCs; conditions: PBMC, 24 hour incubation
Procedure: (§1) For 3-(4,5 dimethylthiazol-2-yl)-2,5-diphenyltetrazolium (MTT) (Sigma-Aldrich, St. Louis, Mo.) analysis, cells were plated in 96 well plates at 10,000 cells per well. 24 hours after plating, compound was added to cells at indicated doses. 22 hours following compound addition, MTT was added to each well (0.5 mg/ml, final concentration) and plates were incubated for an additional 2 hours at 37° C. Medium was then aspirated and the formazan product was solubilized in 100 μl of isopropyl alcohol. The absorbance of each well was measured at 570 nm using a microplate reader.
Under assay conditions that result in the death of virtually all cancer cells, normal cells remain substantially viable.

[3] = system: CD34^+ BM Erythroid; experiment: Colony formation assay, CD34+ bone marrow erythroid lineage
Excerpt: (§2) In a similar fashion to PMBCs, CD34^+ bone marrow hematopoietic stem cells were spared when treated with compound 401.

[4] = system: HT29 colon cancer cells; experiment: Colony formation assay, HT29; conditions: Homo sapiens, HT-29, similar conditions
[5] = system: Hoechst side population cells; experiment: Annexin V staining of Hoechst side population cells; conditions: FIG. 9A
Procedure: Cells treated with or without compound were harvested at 5 hours post treatment for Annexin-V staining. Collected cells were washed with PBS and resuspended in Annexin-V-FITC containing buffer and stained according to manufactures directions (Roche). Annexin-V positive cells were determined by Flow cytometry.
Cells treated with indicated compound for an indicated time were either fixed in 4% formaldehyde or cold methanol for the detection of Annexin V, cleaved caspase 3, or stat3, respectively. Coverslips were air dried and rehydrated in PBS at room temperature for 10 min. Samples were then incubated in blocking buffer (PBS, 5% FBS) for 10 min at room temperature in a humid chamber. Cells were incubated overnight at 4° C. with primary antibodies. After washing, the cells were incubated for 1 hour at room temperature with a 1:500 dilution of FITC conjugated anti-rabbit antibody. Images were captured with a Nikon TE200 microscope equipped with epifluorescence and a SPOT mosaic CCD camerapolyclonal Anti-cleaved caspase 3 antibody (1:100) was obtained from Cell Signaling Technology, Danvers, Mass. Annexin-V-FITC was obtained from Roche, Penzberg, Germany. Polyclonal anti-Stat3 antibody was obtained from Santa Cruz.
The Hoechst side population cells were treated with compound 401 and the mode of cell death was accessed by Annexin V (an early marker for apoptosis) staining.

[6] = system: Stat3; experiment: Stat3-luciferase (Stat3-Luc) reporter assay, OSM-stimulated HeLa cells; conditions: FIG. 6
Procedure: HeLa Cells were co-transfected with Stat3-luciferase (Stat3-Luc) reporter vector (Panomics, Fremont, Calif.) and Renilla luciferase (Promega, Madison, Wis.) using Lipofectamine 2000 as described by the manufacturer (Invitrogen). Following transfection, cells were maintained in medium containing 0.5% FBS for 24 hours. Cells were then treated with the indicated compound for 30 minutes prior to the addition of 25 ng/ml oncostatin M (OSM) (R&D Systems, Minneapolis, Minn.) to the medium. 6 hours following OSM addition, cells were harvested and levels of firefly and renilla luciferase were measured using the Dual-Glo Luciferase Assay System as described by the manufacturer (Promega).
Compounds were tested for their ability to inhibit Stat3 transcription activation activity in cells using a Stat3-luciferase (Stat3-luc) reporter construct. Cells transfected with Stat3-luc were cultured in reduced serum medium prior to addition of indicated compound for 30 minutes. Cells were then stimulated with 25 ng/ml oncostatin M (OSM) for 6 hours followed by detection of Stat3-luc reporter activity. […] AG490, a known inhibitor of the Jak-Stat pathway, was included as a positive control for Stat3 inhibition.

[7] = system: SW480 Hoechst SP cells; experiment: MTT cell viability, SW480 Hoechst side population CSCs; conditions: FIG. 8B
Procedure: To identify and isolate side population (SP) and non-SP fractions, SW480 cells were removed from the culture dish with trypsin and EDTA, pelleted by centrifugation, washed with phosphate-buffered saline (PBS), and resuspended at 37° C. in Dulbecco's modified Eagle's medium (DMEM) containing 2% FBS and 1 mM HEPES. The cells were then labeled with Hoechst 33342 (Invitrogen) at a concentration of 5 μg/mL. The labeled cells were incubated for 120 minutes at 37° C., either alone or with 50 μM verapamil (Sigma-Aldrich, St. Louis). After staining, the cells were suspended in Hanks' balanced saline solution (HBSS; Invitrogen) containing 2% FBS and 1 mM HEPES, passed a through 40 μm mesh filter, and maintained at 4° C. until flow cytometry analysis. The Hoechst dye was excited at 350 nm, and its fluorescence was measured at two wavelengths using a 450 DF10 (450/20 nm band-pass filter) and a 675LP (675 nm long-pass edge filter) optical filter. The gating on forward and side scatter was not stringent, and only debris was excluded,
as §1
The IC50 of compound 401 against the Hoechst side population was accessed in MTT assays and was compared to the IC50 against the non-side population.
In addition, we tested the activities of several other compounds against cancer stem cells. Briefly, freshly isolated CSCs (SW480 Hoechst SP cells or CD44^high FaDu cells) were exposed to a dose range (30-0.117 μM) of compound for 48 h before examining cell viability by MTT assay. IC50s were estimated by plotting the percentage of surviving cells. As shown in Table 4 and Table 5, compounds of present invention can target cancer stem cells.

[8] = system: CD34^+ BM Myeloid; experiment: Colony formation assay, CD34+ bone marrow myeloid lineage; conditions: normal cells, 6 hours incubation
Excerpt: as §2

- IC50 [4]: < 0.5 µM
SMILES: CC(=O)c1cc2c(o1)C(=O)c1ccccc1C2=O [Compound 401, 2-acetylnaphtho[2,3-b]furan-4,9-dione]
- cleaved-Caspase 3 staining [1]: many of the CD133^+ cells become cleaved-Caspase 3 positive
- IC50 [2]: 14 µM
- therapeutic window ([3]; CD34+ bone marrow cells vs DU145 and HT29, in vitro): greater than 50 fold
- IC50 ([3]; normal cells, 6 hours incubation, colony formation): > 30 µM
- mode of cell death by Annexin V staining [5]: the dying cells are Annexin V positive
- inhibition of OSM-stimulated Stat3 reporter activity [6]: inhibited OSM-stimulated Stat3 reporter activity
- sensitivity of side population compared to non-side population [7]: the side population is as sensitive as the non-side population
- IC50 [8]: > 30 µM
